“And” between values parts separate entries of the source, which are not always exact repeats. Equal values may be shown once. After the bases stand the sugars from the 5' end (letter, count) and the backbone: PS all phosphorothioate, else s phosphorothioate and o phosphodiester by linkage. Methylation of C is not given here. e = 2'-O-(2-methoxyethyl) (MOE); k = constrained ethyl (cEt); d = 2'-deoxy (DNA)
Biological target: APOL1
Conditions: ASO

Sequence	target mRNA inhibition (A431, 2 µM)	target mRNA inhibition (A431, 0.0625 µM)	target mRNA inhibition (A431, 0.25 µM)	target mRNA inhibition (A431, 1 µM)	further results
TATATTTGATCCTCAA (sugars kkddddkekekkdddd, PS)	77%	–	–	–	–
AGTATTGCCAGCTAAG (sugars kkddddkekekkdddd, PS)	34%	–	–	–	–
ATTCTATTAGAGGGCT (sugars kkkddddkekeddddd, PS)	73%	–	–	–	–
TCTCATGGTACAGGAG (sugars kddddkekekeddddd, PS)	55%	–	–	–	–
ACGCAATGCTGACTTG (sugars kkkddddkdkdkdddd, PS)	70%	–	–	–	–
GGCATTCAGAATTTCC (sugars k2 d4 e3 k2 d5, PS)	97%	–	–	–	–
GTTCTAACTCTTGGGC (sugars kkddddkdkdkddddd, PS)	90%	28%	59%	75%	target mRNA inhibition (A431, 0.0156 µM): 3%
GTTCTAACTCTTGGGC (sugars k2 d4 e3 k2 d5, PS)	91%	35%	65%	85%	target mRNA inhibition (A431, 0.0156 µM): 20%
GTTTTGTAAGTGCAAC (sugars kdddddkekekddddd, PS)	92%	–	–	–	–
ACTTTATACCAGTGTC (sugars k2 d4 e3 k2 d5, PS)	91%	–	–	–	–
ATATCAGATGGGTACT (sugars k2 d4 e3 k2 d5, PS)	52%	–	–	–	–
ATTTCTTGATGTGGTG (sugars k4 d9 k3, PS)	–	95%	99%	99%	–
CTTTAAACTCAGGTGA (sugars kkdddddkekeddddd, PS)	87%	–	–	–	–
TGTGATGTGGGACTTG (sugars k4 d9 k3, PS)	–	32%	70%	84%	–
AAGTGCAACCAATCAA (sugars k4 d9 k3, PS)	–	36%	63%	83%	–
ATTCTCATGGTACAGG (sugars kkddddkekekkdddd, PS)	34%	–	–	–	–
ACGCAATGCTGACTTG (sugars kekddddeekkddddd, PS)	91%	–	–	–	–
GGAATTATGGAATTGC (sugars kkddddkdkdkddddd, PS)	89%	–	–	–	–
AGTATTGTTTTTGTGG (sugars k2 d4 e4 k2 d4, PS)	85%	–	–	–	–
AAGATTGGCTCTGGCT (sugars kkddddkekekkdddd, PS)	2%	–	–	–	–

Sequence	target mRNA inhibition (A431, 2 µM)	target mRNA inhibition (A431, 0.0625 µM)	target mRNA inhibition (A431, 0.25 µM)	target mRNA inhibition (A431, 1 µM)	further results
ATAATGGTAGGTCTAC (sugars k4 d9 k3, PS)	–	42%	78%	90%	–
GCTAATTTTCTGACTG (sugars kkddddkdkdkddddd, PS)	93%	40%	71%	87%	target mRNA inhibition (A431, 0.0156 µM): 10%
CAGTTTTGTAAGTGCA (sugars kkkddddkekeddddd, PS)	92%	–	–	–	–
AGCATCAAAAACCTGG (sugars k4 d9 k3, PS)	–	66%	81%	89%	–
AATTCTATTAGAGGGC (sugars kkkddddkekekdddd, PS)	41%	–	–	–	–
GTTCAAAAGCAGCATT (sugars kkkddddkekeddddd, PS)	85%	–	–	–	–
TCAGGTGACTACATTT (sugars k4 d9 k3, PS)	–	47%	67%	84%	–
TTGTAAGTGCAACCAA (sugars kkddddkekekddddd, PS)	69%	–	–	–	–
AGGTTGTCCAGAGCTT (sugars k4 d9 k3, PS)	–	51%	60%	69%	–
GTATTTCTTGATGTGG (sugars kddddkekekeddddd, PS)	87%	–	–	–	–
CACATCATTGGGTTAT (sugars kkdddddkekeddddd, PS)	77%	–	–	–	–
ACACATCATTGGGTTA (sugars kkkddddkekeddddd, PS)	58%	–	–	–	–
TTGTCTTGCAAGGTTG (sugars k4 d9 k3, PS)	–	55%	69%	85%	–
CGTCAATATATTCTTT (sugars k3 d4 k3 e1 d5, PS)	95%	–	–	96% and 95%	–
GCAATTTTATGGAACC (sugars k4 d9 k3, PS)	–	–	–	91%	target mRNA inhibition (A431, 0.04 µM): 42%
ATCAGATGGGTACTTC (sugars kkkddddkekeddddd, PS)	85%	–	–	–	–
GTTTTGTAAGTGCAAC (sugars kddddkekekeddddd, PS)	73%	–	–	–	–
ACGCAATGCTGACTTG (sugars k3 d4 k3 e1 d5, PS)	88%	–	–	–	–
ATCAGATGGGTACTTC (sugars kkddddkekekkdddd, PS)	45%	–	–	–	–
ATTCTCATGGTACAGG (sugars kkddddekekeddddd, PS)	95%	41%	71%	90%	target mRNA inhibition (A431, 0.0156 µM): 40%

From the OligoGym collection
